In patent publication US11312705B2, “Heteroaryl[4,3-C]pyrimidine-5-amine derivative, preparation method therefor, and medical uses thereof” (Jiangsu Hengrui Medicine Co., Ltd., priority 2017, dated 2022):

Key:
Assay type in all cases: cell-based
[1] = target: adenosine A1 receptor (A1R) (Homo sapiens (Human), UniProt P30542); assay: Inhibition of adenosine A1 receptor cAMP signaling pathway (HTRF cAMP, CHO-K1/A1R cells); details: Table 2; for IC50: CHO-K1/A1R cells, forskolin 10 μM, CPA 10 nM, cAMP HTRF; for IC50 ratio (A1R/A2aR): selectivity A1R over A2aR
Chain of adenosine A1 receptor (A1R) (P30542 whole entry): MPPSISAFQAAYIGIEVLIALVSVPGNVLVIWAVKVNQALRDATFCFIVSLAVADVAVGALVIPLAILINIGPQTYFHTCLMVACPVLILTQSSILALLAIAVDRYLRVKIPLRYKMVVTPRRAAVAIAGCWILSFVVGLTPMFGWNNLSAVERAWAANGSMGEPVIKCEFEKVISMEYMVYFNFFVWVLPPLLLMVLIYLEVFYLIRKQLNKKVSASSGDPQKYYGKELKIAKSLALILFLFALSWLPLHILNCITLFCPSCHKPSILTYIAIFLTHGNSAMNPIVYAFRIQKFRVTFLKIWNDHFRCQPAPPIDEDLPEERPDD
Excerpt: (§1) Test Example 1. Determination of the inhibition activity of the compounds of the present invention on the adenosine A2a receptor (A2aR) cAMP signaling pathway, the adenosine A2b receptor (A2bR) cAMP signaling pathway, the adenosine A1 receptor (A1R) cAMP signaling pathway and the adenosine A3 receptor (A3R) cAMP signaling pathway.
(§2) The inhibition activity of the compounds of the present invention on the adenosine A2a receptor cAMP signaling pathway, the adenosine A2b receptor cAMP signaling pathway, the adenosine A1 receptor cAMP signaling pathway and the adenosine A3 receptor cAMP signaling pathway was determined by the following method. The experimental method is briefly described as follows:
2.2 Adenosine A1 receptor
(§3) CHO-K1/A1R cells were cultured in DMEM/F12 medium containing 10% fetal bovine serum and 1 mg/ml G418. The cells were digested with the cell separation buffer during the experiment. The cells were then resuspended in the balanced salt buffer containing 20 mM HEPES and 0.1% bovine serum albumin and counted, and the cell density was adjusted to 5×10^5 cells/ml. In the 384-well plate, each well was added with 12.5 μl of cell suspension, and 6.25 μl of test compound (4× concentration) formulated with the balanced salt buffer containing 20 mM HEPES, 0.1% bovine serum albumin, 54 μM rolipram and 2.7 U/ml adenosine deaminase, and the plate was incubated at room temperature for 30 minutes. Each well was then added with 6.25 μl of forskolin and N6-cyclopentyladenosine (4× concentration) formulated with the balanced salt buffer containing 20 mM HEPES, 0.1% bovine serum albumin, 54 μM rolipram and 2.7 U/ml adenosine deaminase, and the plate was incubated at room temperature for 30 minutes. The final concentrations of the compounds were: 100000, 10000, 1000, 100, 10, 1, 0.1 and 0 nM. The final concentration of forskolin was 10 μM. The final concentration of CPA was 10 nM. Intracellular cAMP concentration was detected with the cAMP dynamic 2 kit. cAMP-d2 and Anti-cAMP-Eu-Cryptate were diluted respectively with the cAMP lysis buffer at a ratio of 1:4. Each well was added with 12.5 μl of diluted cAMP-d2, followed by addition of 12.5 μl of diluted Anti-cAMP-Eu-Cryptate, and the plate was incubated at room temperature in the dark for 1 hour. The HTRF signal values were read by the PHERAstar multi-function microplate reader.

[2] = target: adenosine A2b receptor (A2bR) (Homo sapiens (Human), UniProt P29275); assay: Inhibition of adenosine A2b receptor cAMP signaling pathway (HTRF cAMP, CHO-K1/A2bR cells); details: Table 3; for IC50: CHO-K1/A2bR cells, ethyl carbazole 1 μM, cAMP HTRF; for IC50 ratio (A2bR/A2aR): selectivity A2bR over A2aR
Chain of adenosine A2b receptor (A2bR) (P29275 whole entry): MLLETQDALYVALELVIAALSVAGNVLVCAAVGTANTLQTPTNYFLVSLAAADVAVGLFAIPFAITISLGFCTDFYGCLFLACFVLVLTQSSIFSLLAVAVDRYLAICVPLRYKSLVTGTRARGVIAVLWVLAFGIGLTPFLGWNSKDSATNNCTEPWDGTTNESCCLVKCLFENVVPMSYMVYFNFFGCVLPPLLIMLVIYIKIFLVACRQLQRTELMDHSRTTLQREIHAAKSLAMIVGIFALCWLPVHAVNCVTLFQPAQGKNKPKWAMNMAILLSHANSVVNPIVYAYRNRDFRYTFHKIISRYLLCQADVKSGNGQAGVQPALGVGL
Excerpt: as §1, §2
2.4 Adenosine A2b receptor (A2bR)
CHO-K1/A2bR cells were cultured in DMEM/F12 medium containing 10% fetal bovine serum and 1 mg/ml G418. The cells were digested with the cell separation buffer during the experiment. The cells were resuspended in the balanced salt buffer containing 20 mM HEPES and 0.1% bovine serum albumin and counted, and the cell density was adjusted to 10^6 cells/ml. In the 384-well plate, each well was added with 5 μl of cell suspension, and 2.5 μl of test compound (4× concentration) formulated with the balanced salt buffer containing 20 mM HEPES, 0.1% bovine serum albumin, 54 μM rolipram and 2.7 U/ml adenosine deaminase, and the plate was incubated at room temperature for 30 minutes. Each well was then added with 2.5 μl of […] (4× concentration) (Torcis, 1691/10) formulated with the balanced salt buffer containing 20 mM HEPES, 0.1% bovine serum albumin, 54 μM rolipram and 2.7 U/ml adenosine deaminase, and the plate was incubated at room temperature for 30 minutes. The final concentrations of the compounds were: 100000, 10000, 1000, 100, 10, 1, 0.1 and 0 nM. The final concentration of […] was 1 μM. Intracellular cAMP concentration was detected with the cAMP dynamic 2 kit. cAMP-d2 and Anti-cAMP-Eu-Cryptate were diluted respectively with the cAMP lysis buffer at a ratio of 1:4. Each well was added with 5 μl of diluted cAMP-d2, followed by addition of 5 μl of diluted Anti-cAMP-Eu-Cryptate, and the plate was incubated at room temperature in the dark for 1 hour. The HTRF signal values were read by the PHERAstar multi-function microplate reader.

[3] = target: adenosine A2a receptor (A2aR) (Homo sapiens (Human), UniProt P29274); assay: Inhibition of adenosine A2a receptor cAMP signaling pathway (HTRF cAMP, CHO-K1/A2aR cells)
Chain of adenosine A2a receptor (A2aR) (P29274 whole entry): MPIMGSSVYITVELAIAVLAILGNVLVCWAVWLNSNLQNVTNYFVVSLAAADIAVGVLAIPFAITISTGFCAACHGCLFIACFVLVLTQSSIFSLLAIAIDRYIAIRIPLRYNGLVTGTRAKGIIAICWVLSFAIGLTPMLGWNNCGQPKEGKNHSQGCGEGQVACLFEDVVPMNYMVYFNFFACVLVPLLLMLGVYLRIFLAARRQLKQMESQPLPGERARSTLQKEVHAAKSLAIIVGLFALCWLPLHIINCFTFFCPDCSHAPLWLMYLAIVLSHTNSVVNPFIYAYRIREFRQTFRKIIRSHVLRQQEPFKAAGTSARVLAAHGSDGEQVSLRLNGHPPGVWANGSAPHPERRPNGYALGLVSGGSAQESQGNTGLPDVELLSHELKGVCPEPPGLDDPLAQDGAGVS
Excerpt: as §1, §2
2.1 Adenosine A2a Receptor
CHO-K1/A2aR cells were cultured in DMEM/F12 medium containing 10% fetal bovine serum and 800 μg/ml bleomycin. The cells were digested with the cell separation buffer during the experiment. The cells were resuspended in the balanced salt buffer containing 20 mM HEPES and 0.1% bovine serum albumin and counted, and the cell density was adjusted to 10^6 cells/ml. In the 384-well plate, each well was added with 5 μl of cell suspension, and 2.5 μl of test compound (4× concentration) formulated with the balanced salt buffer containing 20 mM HEPES, 0.1% bovine serum albumin, 54 μM rolipram and 2.7 U/ml adenosine deaminase, and the plate was incubated at room temperature for 30 minutes. Each well was then added with 2.5 μl of […] (4× concentration) formulated with the balanced salt buffer containing 20 mM HEPES, 0.1% bovine serum albumin, 54 μM rolipram and 2.7 U/ml adenosine deaminase, and the plate was incubated at room temperature for 30 minutes. The final concentrations of the compounds were: 10000, 2000, 400, 80, 16, 3.2, 0.64, 0.128, 0.0256, 0.00512, and 0.001024 nM. The final concentration of […] was 20 nM. Intracellular cAMP concentration was detected with the cAMP dynamic 2 kit. cAMP-d2 and Anti-cAMP-Eu-Cryptate were diluted respectively with the cAMP lysis buffer at a ratio of 1:4. Each well was added with 5 μl of diluted cAMP-d2, followed by addition of 5 μl of diluted Anti-cAMP-Eu-Cryptate, and the plate was incubated at room temperature in the dark for 1 hour. The HTRF signal values were read by the PHERAstar multi-function microplate reader.

[4] = target: adenosine A3 receptor (A3R) (Homo sapiens (Human), UniProt P0DMS8); assay: Inhibition of adenosine A3 receptor cAMP signaling pathway (HTRF cAMP, CHO-K1/A3R cells); details: Table 2; for IC50: CHO-K1/A3R cells, forskolin 10 μM, 2Cl-IB-MECA 5 nM, cAMP HTRF
Chain of adenosine A3 receptor (A3R) (P0DMS8 whole entry): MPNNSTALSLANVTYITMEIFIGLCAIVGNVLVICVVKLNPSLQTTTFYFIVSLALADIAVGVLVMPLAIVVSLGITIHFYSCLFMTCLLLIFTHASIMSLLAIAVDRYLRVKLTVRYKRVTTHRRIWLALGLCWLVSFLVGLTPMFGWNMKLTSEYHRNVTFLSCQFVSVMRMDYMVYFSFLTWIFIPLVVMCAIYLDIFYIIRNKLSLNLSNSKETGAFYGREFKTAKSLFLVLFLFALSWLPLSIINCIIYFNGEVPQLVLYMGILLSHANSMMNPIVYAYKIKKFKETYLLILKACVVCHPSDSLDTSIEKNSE
Excerpt: as §1, §2
2.3 Adenosine A3 receptor
as §3, with “CHO-K1/A3R cells were” for “CHO-K1/A1R cells were”, “serum and 10 μg/ml puromycin. The cells” for “serum and 1 mg/ml G418. The cells”, “cells were resuspended in” for “cells were then resuspended in”, “forskolin and 2Cl-IB-MECA (4× concentration)” for “forskolin and N6-cyclopentyladenosine (4× concentration)”, “concentration of 2Cl-IB-MECA was 5” for “concentration of CPA was 10”, “2Cl-IB-MECA was 5 nM. Intracellular” for “CPA was 10 nM. Intracellular”

IC50 [1]	IC50 ratio (A1R/A2aR) [1]	IC50 [2]	IC50 ratio (A2bR/A2aR) [2]	IC50 ([3]; Table 1, ethyl carbazole 20 nM)	IC50 ([3]; Table 2, ethyl carbazole 20 nM)	IC50 ([3]; Table 3, ethyl carbazole 20 nM)	IC50 ratio (A3R/A2aR) [4]	IC50 [4]	Structure (SMILES)
37 nM	463	82.6 nM	1032	0.08 nM	0.08 nM	0.08 nM	>1.3 × 10^5	> 10000 nM	Cc1cc(-c2c(-c3ccccc3)nc(N)n3cnnc23)cc(Cl)n1 [Example 4, 8-(2-Chloro-6-methylpyridin-4-yl)-7-phenyl-[1,2,4]triazolo[4,3-c]pyrimidin-5-amine]
173 nM	180	85.4 nM	89	0.96 nM	0.96 nM	0.96 nM	>10^4	> 10000 nM	Cc1cc(-c2c(-c3ccccc3F)nc(N)n3cnnc23)cc(C)n1 [Example 19, 8-(2,6-Dimethylpyridin-4-yl)-7-(2-fluorophenyl)-[1,2,4]triazolo[4,3-c]pyrimidin-5-amine]
41 nM	85	–	–	0.48 nM	0.48 nM	–	>10^4	> 10000 nM	Cc1cc(-c2c(-c3ccc(Cl)cc3)nc(N)n3cnnc23)cc(C(F)F)n1 [Example 52, 7-(4-Chlorophenyl)-8-(2-(difluoromethyl)-6-methylpyridin-4-yl)-[1,2,4]triazolo[4,3-c]pyrimidin-5-amine]
222 nM	214	78.2 nM	75	1.04 nM	1.04 nM	1.04 nM	>10^3	> 10000 nM	Cc1cc(-c2c(-c3ccc(F)cc3)nc(N)n3cnnc23)cc(CF)n1 [Example 55, 8-(2-(Fluoromethyl)-6-methylpyridin-4-yl)-7-(4-fluorophenyl)-[1,2,4]triazolo[4,3-c]pyrimidin-5-amine]
248 nM	148	112 nM	67	1.68 nM	1.68 nM	1.68 nM	>10^3	> 10000 nM	Cc1cc(-c2c(-c3ccccc3F)nc(N)n3cnnc23)cc(C(F)F)n1 [Example 56, 8-(2-(Difluoromethyl)-6-methylpyridin-4-yl)-7-(2-fluorophenyl)-[1,2,4]triazolo[4,3-c]pyrimidin-5-amine]
302 nM	117	209 nM	81	2.59 nM	2.59 nM	2.59 nM	>10^3	> 10000 nM	Cc1cc(-c2c(-c3ccccc3F)nc(N)n3cnnc23)cc(CF)n1 [Example 57, 8-(2-(Fluoromethyl)-6-methylpyridin-4-yl)-7-(2-fluorophenyl)-[1,2,4]triazolo[4,3-c]pyrimidin-5-amine]
1010 nM	330	884 nM	290	3.05 nM	3.05 nM	3.05 nM	>10^3	> 10000 nM	Cc1cc(-c2c(-c3ccc(Cl)cc3F)nc(N)n3cnnc23)cc(C(F)F)n1 [Example 59, 7-(4-Chloro-2-fluorophenyl)-8-(2-(difluoromethyl)-6-methylpyridin-4-yl)-[1,2,4]triazolo[4,3-c]pyrimidin-5-amine]
